# Laboratory results from patent publication US8003773B2, “Polynucleotides encoding MHC class I-restricted hTERT epitopes, analogues thereof or polyepitopes” (Institut Pasteur, priority 2005, dated 2011).
# Assays:
# [1] = tested on: hTERT peptide-pulsed target cells; experiment: Lv-hTERT immunization of HHD mice (HLA-A2.1), CTL response in chromium release assay; type: in vivo
# Protocol: (§1) Immunization with TRIPLv-hTERT was performed as a single subcutaneously (at the base of the tail) injection of 1500 ng of TripLv-hTERT suspension or control vector.
# (§2) 12 days later, hTERT peptide-specific T among splenocytes were detected by an ELISPOT assay (see below). Cytotoxicity assays were performed on the same immune splenocyte populations after in vitro stimulation with peptide-pulsed as described above.
# (§3) Cytotoxicity assays were performed by using standard 4-5 h ^51Cr release assay as previously described (Firat et al. J Gene Med 2002; 4:38-45). Specific lysis in % was calculated by subtracting non-specific lysis observed with the control peptide. Mice were considered as responsers when specific lysis ≧10% was observed.
# [2] = tested on: peptide loaded RMA-B7 target cells; experiment: Peptide immunization of HLA-*B0702 transgenic mice for CTL induction, 51Cr release assay; type: in vivo; conditions: for CTL response after peptide immunization: HLA-*B0702 transgenic mice; for R/T: responder (specific lysis ≧ 10%) versus tested mice / mice tested generating specific CTL: peptide immunization; for R/T: responder (specific lysis ≧ 10%) versus tested mice: six mice per peptide
# Protocol: Female HLA-*B0702 transgenic mice at 8-10 weeks of age were injected subcutaneously (s.c.) at the base of the tail with 50 μg of individual HLA-B0702 restricted hTERT peptides supplemented with 140 μg of helper peptide co-emulsified in incomplete Freund's adjuvant (Difco, Detroit, Mich.). Ten days later, spleen cells of individual mouse were re-activated in vitro with relevant peptide in six wells plate. Effector CTL cells were tested in a standard 4-5 h ^51Cr-release assay, using relevant or negative control peptide-pulsed, HLA-*B0702 transfected RMA cells (RMA-B7). Mice were considered as responders, when specific lysis ≧10% was observed.
# as §3
# [3] = tested on: hTERT peptide-pulsed target cells; experiment: Lv-hTERT immunization of HLA-B7 Tg mice, CTL response in chromium release assay; type: in vivo; conditions: Flap+ Lv-hTRT immunization, by restimulating peptide
# Protocol: as §1, §2
# Mice were considered as responsers when specific lysis ≧10% was observed.
# [4] = tested on: human tumour cell lines of different origins; experiment: Capacity of hTERT-specific CTLs from donors to lyse human tumour cell lines of different origins (summary); type: cell-based; conditions: CTL lines generated in vitro from healthy donors
# Protocol: as §3
# (§4) Human CTL from donors were obtained after in vitro re-activated PBMC for 4 weeks with hTERT peptide HLA-B0702 restricted as described previously (Hernandez et al. Proc Natl Acad Sci U.S.A. 2002; 99:12275-80). Briefly, Ficoll-purified human PBMCS were thawed and incubated (4×10^6/well) in 24-well plates in RPMI 1640, 1 mM sodium pyruvate, 100 IU/ml penicillin, 100 μg/ml streptomycin, 10 mM HEPES, 5×10^-5 M 2-mercaptoethanol supplemented with heat inactivated 10% human serum (Institut Jacques Boy, Reims, France). They were stimulated with each hTERT peptide (10 μg/ml) and recombinant human IL-7 (20 ng/ml; R&D Systems) was added.
# On day 7, lymphocytes were re-activated with peptide-pulsed γ-irradiated autologous PBMCs (50 Gy). The next day, 20 IU/ml human IL-2 (Roche, Mannheim, Germany) was added to the culture. CTL lines were re-activated weekly during four cycles. For some donors, CD8^+ T cells were purified after three round cycle, using CD8 microbeads (Miltenyi Biotec, Bergisch Gladbach, Germany.) according to manufacturer's recommendations and activated once before functional test. Cytolytic assays were performed 6 days after the last re-activation against various ^51Cr-labeled targets: T2-B7 pulsed with tested hTERT peptides or irrelevant peptide, or tumor cell lines.
# [5] = tested on: RMA-B7 targets loaded with relevant peptides; experiment: DNA immunization (hTERT) in HLA-*B0702 transgenic mice, peptide-specific CTL; type: in vivo; conditions: immunised with cDNA encoding hTERT; FIG. 2
# Protocol: HLA-B7 Tg mice and one naïve mice (N) were immunized with 100 μg DNA encoding Htert. On day 14, spleen cells from each mouse were separately in vitro stimulated with different hTERT-derived peptides. Effector cells were essayed 6 days later against RMA-B7 targets loaded with relevant (▪) or control (□) peptides as described in the material and methods. Percentage of lysis at a 60/1 ratio are shown (results from two independent experiments).
# The LvCMV-hTERT plasmid vector encoding the hTERT gene under the control of CMV promotor was purified on plasmid Giga kit columns under endotoxin-free conditions (Qiagen). Anesthetized HLA-*B0702 Transgenic mice were injected with said plasmid (50 μg each side) into regenerating tibialis anterior muscles. 14 days after, spleen cells of individual mouse were re-activated in vitro with peptide-pulsed (10 μg/ml), syngenic γ-irradiated (50 Gy) LPS-lymphoblast in complete medium, supplemented with 10% supernatant from Con A-activated rat spleens cells. Cytotoxicity assays were performed 6 days as described.
# as §3
# [6] = tested on: T2-B7 cells; experiment: Induction of primary CTL responses from healthy donors' PBMC by hTERT peptides; type: cell-based, human; conditions: HLA-B0702 healthy donors, in vitro immunization; FIG. 3
# From the text: T-lymphocyte cells from HLA-*B0702^+ healthy donors were activated with each of the six hTERT peptide-pulsed autologous PBMC as detailed in materials and Method. After four rounds of weekly stimulation, effector cells, pulsed with relevant (▪) or control (□) peptides, were essayed for lytic activity against ^51Cr-labeled T2-B7 cells. Percentage of lysis at a 20/1 effector-target ratio is shown. Results from 8 out of 10 donors are presented (d1 to d8).
# as §4
# On day 7, lymphocytes were re-activated with peptide-pulsed γ-irradiated autologous PBMCs (50 Gy). The next day, 20 IU/ml human IL-2 (Roche, Mannheim, Germany) was added to the culture. CTL lines were re-activated weekly during four cycles. […]
Substance,CTL responses specific for HLA-A2.1 restricted epitopes ([1]; HHD mice immunized with Lv-hTERT),"R/T ([1]; HHD mice, Flap+ Lv-hTRT immunization, by restimulating peptide)",CTL response after peptide immunization [2],R/T: responder (specific lysis ≧ 10%) versus tested mice [2],R/T [3],tumor cell recognition by CTL lines specific for the peptide [4],mice tested generating specific CTL [2],mice with hTERT peptide-specific CTLs induced [5],donors with peptide-specific CTL responses [6]
"p540: HLA-A2.1-restricted hTERT-derived peptide, epitope previously classified as dominant (ILAKFLHWL; UniProt O14746 540-548, looked up, fragment)",potent CTL responses,2/6,,,,,,,
APRCRAVRSL [p4],,,strong CTL response in all mice tested,6/6,6/8,do not lyse all the type of tested tumors,,,
RPAEEATSL [p277],,,moderate specific CTL,3/6,5/8,recognize renal cancer (293 UT) but neither melanoma nor lymphoid tumor cells,50 % of mice tested,,
RPSLTGARRL [p351],,,,4/6,5/8,recognize the majority of tumor cell lines tested,,,
MPRAPRCRA [p1],,,,4/6,4/8,only recognize the T1-B7 targets,,,
RPSFLLSSL [p342],,,moderate specific CTL,3/6,4/8,recognize only melanoma cells (LB 34 and KU 268 target),50 % of mice tested,about 15 % of mice,20 % of donors
APSFRQVSCL [p68],,,strong CTL response in all mice tested,6/6,4/8,only recognize the T1-B7 targets,,,
